Data from ChEMBL document CHEMBL1121922, “Synthesis and pharmacological evaluation of a series of analogues of 1-methylisoguanosine” (1981).
The source made the active and inactive calls. The rule behind the calls is not given here.

Experiments:
Rattus norvegicus [1] = experiment: Antiallergic activity of compound (10 mg/kg, iv) was assessed by the inhibition of passive paw anaphylaxis in rats; assay type: functional
Rattus norvegicus [2] = experiment: Cardiovascular response in conscious hypertensive rats after administration of compound expressed as percent reduction in blood pressure; NA= No activity; assay type: functional, organism-based
Mus musculus [3] = organism: Mus musculus; experiment: Effective peroral dose for muscle relaxation in mice; assay type: functional; conditions: po
Mus musculus [4] = organism: Mus musculus; experiment: Effective peroral dose hypothermic activity in mice; assay type: functional; conditions: po
Rattus norvegicus [5] = experiment: Cardiovascular response in conscious hypertensive rats after administration of compound expressed as percent reduction in heart rate; NA= No activity; assay type: functional, organism-based
Rattus norvegicus [6] = experiment: Antiinflammatory activity of compound (100 mg/kg) was assessed by inhibition of carrageenan-induced edema in rats; NA= No activity; assay type: functional, organism-based
Rattus norvegicus [7] = experiment: Antiinflammatory activity of compound (20 mg/kg) was assessed by inhibition of carrageenan-induced edema in rats; assay type: functional
Mus musculus [8] = organism: Mus musculus; experiment: Effective peroral dose for muscle relaxation in mice; 8.6-27.1; assay type: functional; conditions: po
Rattus norvegicus [9] = experiment: Cardiovascular response in conscious hypertensive rats after administration of compound expressed as percent reduction in heart rate; assay type: functional
Mus musculus [10] = organism: Mus musculus; experiment: Effective peroral dose hypothermic activity in mice; 7.5-20.7; assay type: functional; conditions: po
Rattus norvegicus [11] = experiment: Antiinflammatory activity of compound (50 mg/kg) was assessed by inhibition of carrageenan-induced edema in rats; assay type: functional
Rattus norvegicus [12] = experiment: Cardiovascular response in conscious hypertensive rats after administration of compound expressed as percent reduction in blood pressure; assay type: functional
Rattus norvegicus [13] = experiment: Antiallergic activity of compound (10mg/Kg, iv) was assessed by the inhibition of passive paw anaphylaxis in rats; NA= No activity; assay type: functional, organism-based
Mus musculus [14] = organism: Mus musculus; experiment: Effective peroral dose hypothermic activity in mice; 16.6-26.9; assay type: functional; conditions: po
Mus musculus [15] = organism: Mus musculus; experiment: Effective peroral dose for muscle relaxation in mice; 24.7-35.2; assay type: functional; conditions: po
Rattus norvegicus [16] = experiment: Antiinflammatory activity of 25mg/Kg, po compound was assessed by inhibition of carrageenan-induced edema in rats; NA= No activity; assay type: functional, organism-based
Rattus norvegicus [17] = experiment: Antiallergic activity of 10 mg/kg intravenous dose of compound was assessed by the inhibition of passive paw anaphylaxis in rats; assay type: functional
Rattus norvegicus [18] = experiment: Antiinflammatory activity of 100mg/Kg, po compound was assessed by inhibition of carrageenan-induced edema in rats; NA= No activity; assay type: functional, organism-based
Rattus norvegicus [19] = experiment: Antiallergic activity of 10 mg/kg intravenous dose of compound was assessed by the inhibition of passive paw anaphylaxis in rats; NA= No activity; assay type: functional, organism-based; parameters: dose 10 mg/kg; conditions: at 10 mg/kg
Rattus norvegicus [20] = experiment: Antiinflammatory activity of 50mg/Kg, po compound was assessed by inhibition of carrageenan-induced edema in rats; no activity; assay type: functional
Rattus norvegicus [21] = experiment: Antiallergic activity of compound (10 mg/kg, iv) was assessed by the inhibition of passive paw anaphylaxis in rats; NA= No activity; assay type: functional, organism-based
Rattus norvegicus [22] = experiment: Antiinflammatory activity of compound (25 mg/kg) was assessed by inhibition of carrageenan-induced edema in rats
Mus musculus [23] = organism: Mus musculus; experiment: Effective peroral dose hypothermic activity in mice; 6.3-18.7; assay type: functional; conditions: po
Mus musculus [24] = organism: Mus musculus; experiment: Effective peroral dose for muscle relaxation in mice; 7.7-16.3; assay type: functional; conditions: po
Mus musculus [25] = organism: Mus musculus; experiment: Effective peroral dose hypothermic activity in mice; 2.2-71.9; assay type: functional; conditions: po
Rattus norvegicus [26] = experiment: Antiinflammatory activity of compound (25 mg/kg) was assessed by inhibition of carrageenan-induced edema in rats; assay type: functional
Mus musculus [27] = organism: Mus musculus; experiment: Effective peroral dose for muscle relaxation in mice; 9.9-39.2; assay type: functional; conditions: po

Row | Structure (SMILES) | Inhibition (Rattus norvegicus [1]) [%] | BP (Rattus norvegicus [2]) | ED50 (Mus musculus [3]) [mg/kg] | ED50 (Mus musculus [4]) [mg/kg] | HR (Rattus norvegicus [5]) | HR (Rattus norvegicus [9]) [%] | BP (Rattus norvegicus [12]) [%] | inhibition (Rattus norvegicus [18]) | other results
1 | CCCCCCCCn1c(=O)[nH]c2c(ncn2C2O[C@H](CO)[C@@H](O)[C@H]2O)c1=N (some centres not stated) | 14 | Not significant | > 100 | > 100 | inactive | – | – | – | inhibition (Rattus norvegicus [6]): inactive
2 | COc1nc(N)c2ncn([C@@H]3O[C@H](CO)[C@@H](O)[C@H]3O)c2n1 [BVT.115959] | 56 | – | – | – | – | -25 | -41 | – | Inhibition (Rattus norvegicus [7]): 25%; ED50 (Mus musculus [8]): 15.3 mg/kg; ED50 (Mus musculus [10]): 12.5 mg/kg; Inhibition (Rattus norvegicus [11]): 57%
3 | Cn1c(=O)[nH]c2c(ncn2C2O[C@H](CO)[C@@H](O)[C@@H]2O)c1=N (some centres not stated) | – | Not significant | > 100 | > 100 | inactive | – | – | – | inhibition (Rattus norvegicus [13]): inactive; inhibition (Rattus norvegicus [6]): inactive
4 | Cn1c(=O)[nH]c2c(ncn2C2O[C@@H]3COP(=O)(O)O[C@@H]3[C@@H]2O)c1=N (some centres not stated) | – | – | – | – | – | -37 | -17 | – | ED50 (Mus musculus [14]): 21.2 mg/kg; ED50 (Mus musculus [15]): 29.5 mg/kg; inhibition (Rattus norvegicus [16]): inactive; inhibition in vivo at 10 mg/kg (Rattus norvegicus [17]): 14%
5 | Cn1c(=O)[nH]c2c(ncn2C2O[C@H](CO)[C@@H](O)[C@H]2O)c1=O (some centres not stated) | – | Not significant | > 100 | > 100 | inactive | – | – | inactive | inhibition (Rattus norvegicus [19]): inactive
6 | Cn1c(=O)[nH]c2c(nc(N)n2C2O[C@H](CO)[C@@H](O)[C@H]2O)c1=N (some centres not stated) | – | – | > 100 | > 100 | – | -20 | -10 | inactive | inhibition (Rattus norvegicus [19]): inactive
7 | N=c1c2ncn(C3O[C@H](CO)[C@@H](O)[C@H]3O)c2[nH]c(=O)n1-c1ccccc1 (some centres not stated) | – | Not significant | > 100 | > 100 | inactive | – | – | inactive | inhibition in vivo at 10 mg/kg (Rattus norvegicus [17]): 30%
8 | Cn1c(=N)c2ncn3c2n(c1=O)C[C@H]1OC3[C@H](O)[C@@H]1O.I | – | Not significant | > 100 | > 100 | inactive | – | – | – | inhibition in vivo at 10 mg/kg (Rattus norvegicus [17]): 45%; inhibition in vivo at 50 mg/kg (Rattus norvegicus [20]): 21%
9 | Nc1nc(=O)[nH]c2c1ncn2[C@@H]1O[C@H](CO)[C@@H](O)[C@H]1O [ISOGUANOSINE] | – | – | > 100 | > 100 | – | – | – | inactive | –
10 | Cn1c(=O)[nH]c2c(nc(Br)n2C2O[C@H](CO)[C@@H](O)[C@H]2O)c1=N (some centres not stated) | – | Not significant | > 100 | > 100 | inactive | – | – | – | inhibition (Rattus norvegicus [21]): inactive; inhibition (Rattus norvegicus [6]): inactive
11 | Cn1c(N)c2nc([C@@H]3O[C@H](CO)[C@@H](O)[C@H]3O)nc-2[nH]c1=O | – | – | > 100 | > 100 | inactive | – | -9 | inactive | inhibition (Rattus norvegicus [19]): inactive
12 | Cn1c(=O)[nH]c2c(ncn2C2O[C@H](CO)[C@@H](O)[C@H]2O)c1=N (some centres not stated) | 55 | – | – | – | – | -36 | -32 | – | Inhibition (Rattus norvegicus [22]): 62%; ED50 (Mus musculus [23]): 10.9 mg/kg; ED50 (Mus musculus [24]): 11.2 mg/kg
13 | C[C@H]1OC(n2cnc3c(=N)n(C)c(=O)[nH]c32)[C@H](O)[C@@H]1O (some centres not stated) | – | Not significant | > 100 | > 100 | inactive | – | – | inactive | inhibition (Rattus norvegicus [19]): inactive
14 | Cn1c(=O)[nH]c2c(ncn2C2O[C@H](COP(=O)(O)O)[C@@H](O)[C@H]2O)c1=N (some centres not stated) | 57 | – | – | – | – | -48 | -44 | – | ED50 (Mus musculus [25]): 12.6 mg/kg; Inhibition (Rattus norvegicus [26]): 46%; ED50 (Mus musculus [27]): 19.7 mg/kg
15 | CCCCn1c(=O)[nH]c2c(ncn2C2O[C@H](CO)[C@@H](O)[C@H]2O)c1=N (some centres not stated) | – | – | > 100 | > 100 | – | -16 | -7 | inactive | inhibition in vivo at 10 mg/kg (Rattus norvegicus [17]): 35%
16 | CCn1c(=O)[nH]c2c(ncn2C2O[C@H](CO)[C@@H](O)[C@H]2O)c1=N (some centres not stated) | 40 | – | > 100 | > 100 | – | -27 | -18 | – | Inhibition (Rattus norvegicus [11]): 17%
17 | Cn1c(=O)[nH]c2c(ncn2C2O[C@H](CI)[C@@H](O)[C@H]2O)c1=N (some centres not stated) | 14 | Not significant | > 100 | > 100 | inactive | – | – | – | inhibition (Rattus norvegicus [6]): inactive
18 | Cn1c(=O)[nH]c2c(nc(NN)n2C2O[C@H](CO)[C@@H](O)[C@H]2O)c1=N (some centres not stated) | – | – | > 100 | > 100 | – | -21 | -13 | inactive | inhibition (Rattus norvegicus [19]): inactive
19 | Cn1c(=O)[nH]c2c(ncn2COCCO)c1=N | – | Not significant | > 100 | > 100 | inactive | – | – | – | inhibition (Rattus norvegicus [13]): inactive; inhibition (Rattus norvegicus [6]): inactive
